According to patent US6794396B2, “Substituted pyridines useful for inhibiting cholesteryl ester transfer protein activity” (Pharmacia Corporation, priority 1998, dated 2004):
pIC50: −log10 of the molar value.

What was measured:
CETP [1] = molecular target: T1, CETP (Homo sapiens, UniProt P11597); assay: CETP activity in vitro: transfer of [3H]CE from HDL donor to LDL acceptor particles; type: biochemical; conditions: 50% inhibition of [3H]CE transfer from HDL to LDL, 2 hours at 37° C.; read-out: IC50(μm)
T1 construct: made in house; host or cells: CHO cells (serum-free conditioned medium)
T1 sequence (P11597 18-493): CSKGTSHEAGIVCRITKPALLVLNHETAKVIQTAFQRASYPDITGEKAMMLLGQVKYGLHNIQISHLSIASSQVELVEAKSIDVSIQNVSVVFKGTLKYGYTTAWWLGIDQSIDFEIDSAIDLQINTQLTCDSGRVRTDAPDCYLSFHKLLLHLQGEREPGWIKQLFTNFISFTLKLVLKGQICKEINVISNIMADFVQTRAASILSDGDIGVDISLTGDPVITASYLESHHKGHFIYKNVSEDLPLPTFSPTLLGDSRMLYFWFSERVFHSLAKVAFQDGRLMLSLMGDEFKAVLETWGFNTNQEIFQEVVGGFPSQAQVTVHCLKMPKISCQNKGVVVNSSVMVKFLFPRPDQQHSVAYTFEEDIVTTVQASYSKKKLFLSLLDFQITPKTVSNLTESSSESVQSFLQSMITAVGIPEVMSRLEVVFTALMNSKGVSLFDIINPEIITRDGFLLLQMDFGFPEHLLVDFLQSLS
Procedure, shortened: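 CETP from conditioned medium of CETP-transfected CHO cells incubated with [3H]CE-labelled HDL donor and LDL acceptor, pH 7.4 Tris buffer with NaCl, EDTA and 1% BSA, 2 h at 37 °C. LDL precipitated with dextran sulfate/MgCl2, filtered, and transferred radioactivity counted; IC50 reported.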

[2] = molecular target: T2, CETP in human plasma or serum pool (Homo sapiens, UniProt P11597); assay: Whole serum CETP activity assay (tritiated cholesterol ester); type: biochemical; conditions: 4 hours at 37° C.
T2 construct: from tissue; host or cells: pooled human EDTA plasma or serum from healthy volunteers
T2 sequence (P11597 18-493): T1 sequence (P11597 18-493)
Experimental: Blood was obtained from healthy volunteers recruited from the personnel of Monsanto Company, Saint Louis, Mo. Blood was either collected in tubes containing EDTA (EDTA plasma pool) or in tubes without EDTA (spun to form the serum pool). The EDTA human plasma pool or human serum pool, previously stored at −20° C., was thawed at room temperature, and centrifuged for 5 minutes to remove any particulate matter. Tritiated HDL, radiolabeled in the cholesteryl ester moiety ([^3H]CE-HDL) as described by Morton and Zilversmit (J. Biol. Chem., 256, 11992-95 (1981) which is incorporated by reference herein), was added to the plasma or serum to a final concentration of (25 μg/ml cholesterol).
Inhibitor compounds were added to the plasma or serum as follows: Equal volumes of the plasma or serum containing the [^3H]CE-HDL (396 μl) were pipetted into micro tubes (Titertube®, Bio-Rad Laboratories, Hercules, Calif.). Compounds, usually dissolved as 20-50 mM stock solutions in DMSO, were serially diluted in DMSO (or an alternative solvent in some cases, such as dimethylformamide or ethanol). Four μl of each of the serial dilutions of inhibitor compounds or DMSO alone were then added to each of the plasma or serum tubes. The tubes were immediately mixed. Triplicate aliquots (100 μl) from each plasma or serum tube were then transferred to wells of 96-well round-bottomed polystyrene microtiter plates (Corning, Corning, N.Y.). Plates were sealed with plastic film and incubated at 37° C. for 4 hours.
Test wells contained plasma or serum with dilutions of inhibitor compounds. Control wells contained plasma or serum with DMSO alone. Blank wells contained plasma or serum with DMSO alone that were left in the micro tubes at 4° C. for the 4 hour incubation and were added to the microtiter wells at the end of the incubation period. VLDL and LDL were precipitated by the addition of 10 μl of precipitating reagent (1% (w/v) Dextran Sulfate (Dextralip50)/0.5M magnesium chloride, pH 7.4) to all wells. The wells were mixed on a plate mixer and then incubated at ambient temperature for 10 min. The plates were then centrifuged at 1000×g for 30 mins at 10° C. The supernatants (50 μl) from each well were then transferred to Picoplate™ 96 plate wells (Packard, Meriden, Conn.) containing […] Microscint™-40 (Packard, Meriden, Conn.). The plates were heat-sealed (TopSeal™-P, Packard, Meriden, Conn.) according to the manufacturers directions and mixed for 30 min.
Radioactivity was measured on a microplate scintillation counter (TopCount, Packard, Meriden, Conn.). […] The maximum percent transfer (in the control wells) was determined using the following equation: [formula]
The percent of control transfer determined in the wells containing inhibitor compounds was determined as follows: [formula]
IC50 values were then calculated from plots of % control versus concentration of inhibitor compound.

CETP [3] = assay: Inhibition of CETP activity in vivo: [3H]CE transfer from HDL to VLDL and LDL after intravenous injection; design: species or system golden Syrian hamster; conditions: hamsters, injection into jugular vein, four hours
From the text: Inhibition of CETP by a test compound can be determined by administering the compound to an animal by intravenous injection, determining the rate of transfer of tritium-labeled cholesteryl ester (^3H]CE) from HDL to VLDL and LDL particles, and comparing the rate of transfer with the rate of transfer observed in control animals.
Male golden Syrian hamsters were maintained on a diet of chow containing 0.24% cholesterol for at least two weeks prior to the study. Immediately before the experiment, animals were anesthetized with pentobarbital. Anesthesia was maintained throughout the experiment. Indwelling catheters were inserted into the jugular vein and carotid artery. Test compound, Dimethyl 5,5′-dithiobis[2-difluoromethyl)-4-(2-methylpropyl)-6-(trifluoromethyl)-3-pyridinecarboxylate] (Compound 181), was dissolved as a 80 mM stock solution in vehicle (2% ethanol: 98% PEG 400, Sigma Chemical Company, St. Louis, Mo., USA). At the start of the experiment all animals received 0.2 ml of a solution containing [^3H]-CE-HDL into the jugular vein. [^3H[-CE-HDL is a preparation of human HDL containing tritium-labeled cholesteryl ester, and was prepared according to the method of Glenn et al. (“Quantification of Cholesteryl Ester Transfer Protein (CETP): A) CETP Activity and B) Immunochemical Assay of CETP Protein,” Meth. Enzymol., Glenn and Melton (Meth. Enzymol., 263, 339-351 (1996) which is incorporated herein by reference).
After 2 minutes, the animals received 0.1 ml of the test solution injected into the jugular vein. Control animals received 0.1 ml of the vehicle solution without test compound. After 5 minutes, the first blood samples (0.5 ml) were taken from the carotid artery and collected in standard microtainer tubes containing ethylenediamine tetraacetic acid. Saline (0.5 ml) was injected to flush the catheter and replace blood volume. Subsequent blood samples were taken at two hours and four hours by the same method. Blood samples were mixed well and kept on ice until the completion of the experiment.
Plasma was obtained by centrifugation of the blood samples at 4° C. The plasma (50 μl) was then treated with 5 μl of precipitating reagent (dextran sulfate, 10 g/l; 0.5M magnesium chloride to remove VLDL/LDL. After centrifugation, the resulting supernatant (25 μl) containing the HDL was analyzed for radioactivity using a liquid scintillation counter. The percentage [^3H] CE transferred from HDL to LDL and VLDL (% transfer) was calculated based on the total radioactivity in equivalent serum samples before precipitation. Typically, the amount of transfer from HDL to LDL and VLDL in control animals was 30 to 35% after four hours. The polyethylene glycol vehicle was determined to have no effect on CETP activity in this model.
(Compound 181), and five animals that received vehicle. At two hours, mean values of 13% [^3H]-Ce transfer from HDL to LDL and VLDL were obtained for the control animals, but only 4.7% transfer for the animals receiving Compound 181. […] Student t-tests were performed to determine if the means for control and animals treated with Compound 181 were statistically different.

pIC50 (CETP [1]): 5.06
IC50 whole serum CETP activity [2]: 17 µM
SMILES: COC(=O)c1c(C(F)F)nc(C(F)(F)F)c(S)c1CC(C)C [Compound 7, Methyl 2-(Difluoromethyl)-5-mercapto-4-(2-methylpropyl)-6-(trifluoromethyl)-3-pyridinecarboxylate]
% Transfer of [3H]-CE from HDL to LDL and VLDL (CETP [3]): 10.6%
% Inhibition of CETP activity (CETP [3]; versus control animals): 50%
